In patent US20230165868A1, “PARAXANTHINE-BASED COMPOSITIONS FOR ENHANCING MUSCLE FUNCTION, NITRIC OXIDE SIGNALING, AND/OR MUSCLE GLYCOGEN LEVELS” (Ingenious Ingredients, LP, priority 2021, published 2023):

Columns and labels:
[1] = Body weight during 28-day oral supplementation; type: in vivo, Swiss Albino mice; conditions: mean ± SD, n = 8 mice
Protocol: (§1) Forty 8-week-old male Swiss Albino mice were housed in an animal room at a constant temperature (22±3° C.) and humidity (30%-70%) under a 12:12 h light-dark cycle with standard laboratory diet (Purina 5L79, Rat and Mouse 18% protein; PMI Nutrition International, Brentwood, Mo., USA). Distilled water was provided ad libitum. All animal experiments were reviewed and approved by the Institutional Animal Ethical Committee (IAEC) of Radiant Research Services Pvt. Ltd (Bangalore, India). All research was conducted in accordance with the guidelines of the committee for the purpose of control and supervision of experiments on animals (CPCSEA Registration Number-1803/PO/RcBi/S/2015/CPCSEA).
(§2) After one week of acclimation, the animals were randomly divided by body weight into five groups (n=8 per group in each test) for oral treatment once a day, at approximately same time each day (±1 hour), for 28 consecutive days: (1) vehicle control; (2) paraxanthine (3) L-theanine; (4) alpha-GPC; and (5) taurine. The dose administered to the mice was calculated using US Food and Drug Administration for human equivalence doses (HED), assuming a human weight of 60 kg. The following HED were used in this study: 100 mg paraxanthine, (ENFINITY™, Ingenious Ingredients, L.P Lewisville, Tex., USA; mouse dose: 20.5 mg/kg bw/day); 200 mg alpha-GPC mg (YangLing Daily Health Bio-Engineering Technology Co., Ltd; mouse dose: 41.09 mg/kg bw), 50 mg L-theanine (Hangzhou Qinyuan Natural Plant High-tech Co., Ltd; mouse dose: 10.28 mg/kg bw), and 500 mg taurine (Jiangyin Huachang Food Additive Co., Ltd; mouse dose: 102.75 mg/kg bw). 0.5% Carboxy Methyl Cellulose sodium was used as vehicle and the test item formulations were prepared daily. Dosing was conducted via oral gavage using disposable polypropylene syringes with sterilized stainless steel gavage tubes. The food intake and water consumption were monitored daily, and BW was recorded weekly. The last dose on day 28 was given 1 hour prior to testing.

[2] = Liver and heart mass / gross pathology; type: in vivo, Swiss Albino mice; conditions: after 28 days of treatment; mean ± SD, n = 8
Protocol: (§3) (2) paraxanthine (3) L-theanine; […] The dose administered to the mice was calculated using US Food and Drug Administration for human equivalence doses (HED), assuming a human weight of 60 kg. […] Dosing was conducted via oral gavage using disposable polypropylene syringes with sterilized stainless steel gavage tubes. The food intake and water consumption were monitored daily, and BW was recorded weekly. The last dose on day 28 was given 1 hour prior to testing. All animals were euthanized by 95% CO2 after 28 days of following their assigned treatment. Blood was collected immediately after euthanization by the retro-orbital route and was immediately centrifuged at 1500×g for 10 min at 4° C. before having all serum transferred into cryogenic tubes and stored at -80° C. The liver, heart, gastrocnemius and soleus were excised and weighed.

[3] = Feed consumption during 28-day oral supplementation; type: in vivo, Swiss Albino mice; conditions: mean ± SD, n = 8 mice
Protocol: as §1, §2

male Swiss Albino mice [4] = test: Forelimb grip strength test; type: in vivo; conditions: for Baseline forelimb grip strength: day 0 baseline, time holding steel bar, mean of three trials; for increase in forelimb grip strength compared to control: day 28, one hour after oral treatment, vs vehicle control
Protocol: After one week of acclimation, the animals were randomly divided by body weight into five groups (n=8 per group in each test) for oral treatment once a day, at approximately same time each day (±1 hour), for 28 consecutive days: (1) vehicle control; (2) paraxanthine (3) L-theanine; […] The dose administered to the mice was calculated using US Food and Drug Administration for human equivalence doses (HED), assuming a human weight of 60 kg. […] Dosing was conducted via oral gavage using disposable polypropylene syringes with sterilized stainless steel gavage tubes. The food intake and water consumption were monitored daily, and BW was recorded weekly. The last dose on day 28 was given 1 hour prior to testing. The forelimb grip strength was measured on day 0 and day 28 by using a stainless-steel grill to assess muscle strength (Orchid Scientific & Innovative India Pvt Ltd, India). Grip strength was measured one hour after treatment. Briefly, each mouse was placed on a grill chamber and the steel bar is inverted; grip strength is measured by recording the time each animal holds the steel bar. The maximum time for each trial was six minutes. Each animal performed three independent trials separated by six minutes intervals and the mean of the three trials was calculated.

[5] = Clinical biochemical profiles of serum; type: in vivo, Swiss Albino mice; conditions: serum at end of 28-day treatment; mean ± SD, n = 8
Protocol: (§4) After one week of acclimation, the animals were randomly divided by body weight into five groups (n=8 per group in each test) for oral treatment once a day, at approximately same time each day (±1 hour), for 28 consecutive days: (1) vehicle control; (2) paraxanthine (3) L-theanine; […] The dose administered to the mice was calculated using US Food and Drug Administration for human equivalence doses (HED), assuming a human weight of 60 kg. […] Dosing was conducted via oral gavage using disposable polypropylene syringes with sterilized stainless steel gavage tubes. The food intake and water consumption were monitored daily, and BW was recorded weekly. The last dose on day 28 was given 1 hour prior to testing. All animals were euthanized by 95% CO2 after 28 days of following their assigned treatment. Blood was collected immediately after euthanization by the retro-orbital route and was immediately centrifuged at 1500×g for 10 min at 4° C. before having all serum transferred into cryogenic tubes and stored at -80° C. The liver, heart, gastrocnemius and soleus were excised and weighed. Collected serum was analyzed for clinical biochemical variables including aspartate aminotransaminase (AST), alanine aminotransaminase (ALT), alkaline phosphatase (ALP), uric acid (UA), creatinine, total cholesterol (TC), triglycerides (TG), high-density lipoproteins (HDL), and low-density lipoproteins (LDL) were measured using an auto analyzer (EM360, ERBA Diagnostics Mannheim GmbH, Mannheim, Germany). Nitric oxide was analyzed using standard ELISA assay kits (Lot No: E-BC-[…], Elabscience, Houston, Tex., USA).

Nitric oxide = test: Serum nitric oxide ELISA; type: in vivo, Swiss Albino mice; conditions: serum after 28 days of treatment; for Nitric Oxide: mean ± SD, n = 8; for increase in nitric oxide levels over control: vs vehicle control
Protocol: as §4

male Swiss Albino mice [6] = test: Treadmill endurance test; type: in vivo; conditions: for Distance traveled on treadmill / increase in distance traveled during treadmill exercise compared to control: after 28 days of supplementation; for Distance traveled on treadmill: run until exhaustion, n=8; for Distance traveled on treadmill / Baseline treadmill performance (distance): mean ± SD; for increase in distance traveled during treadmill exercise compared to control: vs vehicle control
Protocol: (2) paraxanthine (3) L-theanine; […] The dose administered to the mice was calculated using US Food and Drug Administration for human equivalence doses (HED), assuming a human weight of 60 kg. […] Dosing was conducted via oral gavage using disposable polypropylene syringes with sterilized stainless steel gavage tubes. The food intake and water consumption were monitored daily, and BW was recorded weekly. The last dose on day 28 was given 1 hour prior to testing. […] All animals were adapted to this procedure daily 60 minutes after dosing for five days in a week during the treatment period. On 28th day of each respective treatment, all animals were subjected to a muscle endurance test. […] Animals were subjected to the treadmill test until exhaustion. Distance traveled (cm) was measured as a marker of exercise performance.

male Swiss Albino mice [7] = test: Muscle weight (gastrocnemius, soleus) after 28 days; type: in vivo; conditions: after 28 days of supplementation; vs vehicle control
Protocol: as §3

| Compound | body weight ([1]; Basal) [grams] | body weight ([1]; Week 1, oral once daily) [grams] | body weight ([1]; Week 2, oral once daily) [grams] | body weight ([1]; Week 3, oral once daily) [grams] | body weight ([1]; Week 4, oral once daily) [grams] | Heart mass [2] [mg] | Liver mass [2] | feed consumption ([3]; Week 1) [grams] | feed consumption ([3]; Week 2) [grams] | feed consumption ([3]; Week 3) [grams] | feed consumption ([3]; Week 4) [grams] | Baseline forelimb grip strength (male Swiss Albino mice [4]) | increase in forelimb grip strength compared to control (male Swiss Albino mice [4]) [%] | ALP [5] [U/L] | ALT [5] [U/L] | AST [5] [U/L] | Creatinine [5] [mg/dL] | Urea [5] [mg/dL] | Nitric Oxide (Nitric oxide) [ng/mL] | increase in nitric oxide levels over control (Nitric oxide) [%] | other results |
| --- | --- | --- | --- | --- | --- | --- | --- | --- | --- | --- | --- | --- | --- | --- | --- | --- | --- | --- | --- | --- | --- |
| C[N+](C)(C)CCOP(=O)([O-])OC[C@H](O)CO [Alpha-GPC, L-alpha glycerylphosphorylcholine] | 22.50 ± 0.44 | 24.10 ± 0.40 | 27.05 ± 0.50 | 29.14 ± 0.49 | 31.68 ± 0.44 | 189 ± 1.0 | 1,869 ± 32 mg | 40.91 ± 0.55 | 43.34 ± 0.40 | 45.49 ± 0.40 | 47.54 ± 0.42 | 91.00±0.40 | 8 | 179.3 ± 3.99 | 23.63 ± 1.51 | 38.88 ± 2.10 | 0.90 ± 0.16 | 29.38 ± 1.41 | 9.21 ± 2.33 | 42 | Distance traveled on treadmill (male Swiss Albino mice [6]): 1,695±53.0 centimeters; increase in distance traveled during treadmill exercise compared to control (male Swiss Albino mice [6]): did not increase treadmill performance; Baseline treadmill performance (distance) (male Swiss Albino mice [6]): 248.6±42.2 cm; increase in gastrocnemius muscle mass compared to control (male Swiss Albino mice [7]): no effect on muscle mass; increase in soleus muscle mass compared to control (male Swiss Albino mice [7]): no effect on muscle mass |
| CCNC(=O)CC[C@H](N)C(=O)O [L-Theanine, L-theanine] | 22.41 ± 0.49 | 24.20 ± 0.56 | 26.76 ± 0.71 | 29.00 ± 0.60 | 31.60 ± 0.64 | 189 ± 2.3 | 1,866 ± 43 mg | 41.26 ± 0.86 | 43.50 ± 0.66 | 45.30 ± 0.48 | 47.60 ± 0.51 | 87.90±2.63 | 12 | 177.1 ± 3.68 | 24.25 ± 1.28 | 40.25 ± 2.44 | 0.89 ± 0.11 | 28.75 ± 1.28 | 10.23 ± 1.26 | 57 | Distance traveled on treadmill (male Swiss Albino mice [6]): 1,710±127 centimeters; increase in distance traveled during treadmill exercise compared to control (male Swiss Albino mice [6]): 13%; Baseline treadmill performance (distance) (male Swiss Albino mice [6]): 265.4±32.9 cm; increase in gastrocnemius muscle mass compared to control (male Swiss Albino mice [7]): 5%; increase in soleus muscle mass compared to control (male Swiss Albino mice [7]): but not soleus muscle mass |
| Cn1c(=O)[nH]c2ncn(C)c2c1=O [Paraxanthine, 1,7-dimethylxanthine] | 22.01 ± 0.40 | 23.86 ± 0.55 | 26.95 ± 0.41 | 29.68 ± 0.45 | 32.80 ± 0.48 | 190 ± 1.4 | 1,870 ± 31 mg | 41.73 ± 046 | 43.89 ± 0.68 | 46.00 ± 0.59 | 48.34 ± 0.68 | 90.60±0.92 | 17 | 179.4 ± 2.56 | 23.88 ± 0.99 | 39.50 ± 1.60 | 0.86 ± 0.11 | 29.13 ± 0.99 | 13.06 ± 0.58 | 101 | Distance traveled on treadmill (male Swiss Albino mice [6]): 2,100±133 centimeters; increase in distance traveled during treadmill exercise compared to control (male Swiss Albino mice [6]): 39%; Baseline treadmill performance (distance) (male Swiss Albino mice [6]): 255.3±30.7 cm; increase in gastrocnemius muscle mass compared to control (male Swiss Albino mice [7]): 14%; increase in soleus muscle mass compared to control (male Swiss Albino mice [7]): 41% |
